# Measurements reported in patent publication US20100040568A1, “Steroidal compounds as melanogenesis modifiers and uses thereof” (SkinMedica, Inc., priority 2008, published 2010).
# Entries after “also recorded” stand apart in the source; their conditions may differ.
# How the values were obtained:
# [1] = system: African-American skin equivalent (MEL-B); assay: MelanoDerm pigmentation assay, African-American skin equivalent; assay type: cell-based, human
# Description: (§1) MelanoDerm™, made by MatTek Corp., is a viable reconstituted three-dimensional human skin equivalent containing normal melanocytes and keratinocytes that are derived from African-American (MEL-B), Asian (MEL-A) or Caucasian (MEL-C) donors. Both MEL-A and MEL-B tissues were used in the current study, and they were maintained in the NMM-113 medium as recommended by the manufacturer.
# Conessine (from Sigma) was dissolved in 30% ethanol: 70% propylene glycol to a final concentration of 1.0 mM (equal to 356.6 μg/ml), and this was maintained constant and used on all samples tested. A 25 μl of its aliquot was applied topically to the MelanoDerm™ tissue (MEL-B) on Days 0, 1, 3, 6, 8 and 10. The MelanoDerm™ tissues were fed every other day with 5 ml fresh NMM-113. Prior to each application, the tissues were washed with 1 ml PBS to remove any residual test compound. Tissues were fixed on Days 10 and 13 for microscopic analysis and histological evaluation. In addition, duplicate tissues were frozen on Days 10 and 13 for the melanin assay.
# (§2) The experiments were repeated twice on both MEL-A and MEL-B tissues from different lots to make sure that the results are reproducible (study 1 or 2). For each experiment, six tissues were treated with conessine, and six were treated with […] (30% ethanol: 70% PEG) or arbutin if applicable. For MEL-B, on day 10, three tissues under each treatment condition were taken out, and one was used for histological studies and the other two were used for the melanin assay. The same protocol was followed with the MEL-B samples after 13 days' treatment and MEL-A after either 13 or 16 days' treatments.
# (§3) Procedure 1: the effects of conessine on melanin synthesis in MEL-A or B were evaluated by light microscopy (views from the top surface of the tissue). Procedure 2: the distribution of melanin in the treated-MEL-A or B was accessed by image analysis using Fontana-Masson stained histological sections (views from the side of the tissue).
# (§4) MelanoDerm™, made by MatTek Corp., is a viable reconstituted three-dimensional human skin equivalent containing normal melanocytes and keratinocytes that are derived from African-American (MEL-B), Asian (MEL-A) or Caucasian (MEL-C) donors. It has human skin-like structure and undergoes progressive tissue darkening over the course of 2-3 weeks. MelanoDerm™ provides a useful in vitro means for evaluation of agents that modulate pigmentation. Human skin equivalent models such as MelanoDerm™ provide an alternative to clinical and animal testing for evaluating the effects of putative bioactive compounds on mammalian pigmentation. MelanoDerm™ is considered a more physiologically relevant model than melanocytes alone or melanocyte-keratinocyte co-cultures. Both MEL-A and MEL-B tissues were used in the current study, and they were maintained in the NMM-113 medium as recommended by the manufacturer. In this model, substantial accumulation of newly synthesized melanin occurs over a two to three week period.
# (§5) Conessine and Licorice extract were dissolved in 30% ethanol: 70% propylene glycol (PEG) to a final concentration of 0.036% (0.36 mg/ml). A 25 μl aliquot of each compound was applied topically to the Asian MelanoDerm™ tissue (MEL-A) on Days 0, 1, 3, 6, 8, 10 and 13. The MelanoDerm™ tissues were fed every other day with 5 ml fresh NMM-113. Prior to each application, the tissues were washed with 1 ml PBS to remove any residual test compound. Tissues were fixed on Days 13 and 16 for microscopic analysis and histological evaluation. In addition, duplicate tissues were frozen on Days 13 and 16 for melanin assay. 30% ethanol: 70% PEG was used as negative control. Cell viability was measured in accordance with the manufacturer's instructions using the MTT assay kit (MatTek Corp., Ashland, Mass. 01721). One MEL-A tissue from each condition was harvested on day 2 and 7, and MTT assay was performed. Similar experiments were performed on MEL-B.
# tyrosinase = target: T1, tyrosinase (Mus musculus, UniProt P11344); assay: Tyrosinase activity assay on melan-a cell lysates; assay type: biochemical, murine; details: for direct inhibition of tyrosinase enzymatic activity: melan-a cell lysates (10 μg) pre-incubated with conessine 10 μM for 30 minutes
# T1 construct: endogenous in cells; host or cells: melan-a cells (murine melanocytes), cell lysate
# T1 sequence (P11344 19-533): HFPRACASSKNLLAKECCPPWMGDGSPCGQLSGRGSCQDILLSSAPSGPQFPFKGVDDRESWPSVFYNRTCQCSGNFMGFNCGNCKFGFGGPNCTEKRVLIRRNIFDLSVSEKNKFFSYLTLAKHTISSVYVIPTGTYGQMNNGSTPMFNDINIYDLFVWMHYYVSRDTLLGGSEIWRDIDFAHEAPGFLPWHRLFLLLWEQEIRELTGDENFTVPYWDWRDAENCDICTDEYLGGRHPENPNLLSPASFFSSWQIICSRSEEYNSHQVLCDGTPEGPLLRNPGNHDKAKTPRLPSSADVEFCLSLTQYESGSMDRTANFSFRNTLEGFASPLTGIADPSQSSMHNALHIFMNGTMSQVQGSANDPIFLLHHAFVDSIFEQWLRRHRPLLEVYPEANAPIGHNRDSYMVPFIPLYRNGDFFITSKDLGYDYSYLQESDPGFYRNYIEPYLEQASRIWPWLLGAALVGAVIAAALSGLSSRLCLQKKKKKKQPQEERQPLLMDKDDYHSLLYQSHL
# Description: The effect of conessine on tyrosinase activity was studied in vitro using melan-a cell lysates.
# In one example, melan-a cell lysates (10 μg) were pre-incubated with either diluent, conessine (10 μM) or phenylthiourea (PTU, 300 μM, a known tyrosinase inhibitor) for 30 minutes at room temperature. Tyrosinase activity assay was performed in triplicate on melan-a cell lysates as previously described (Orlow et al. 1990).
# [2] = system: Asian skin equivalent (MEL-A); assay: MelanoDerm pigmentation assay, Asian skin equivalent; assay type: cell-based, human
# From the text: as §1
# Tissues were taken out on Days 13 and 16 for the various assays. 30% ethanol: 70% propylene glycol was used as a negative control and the well-known pigmentation inhibitor, arbutin (at concentration of 3 mg/ml), was used as a positive control.
# as §2, §3, §4, §5
# Quantitative melanin assay was performed on the treated MEL-A tissues.
# [3] = 0.036% topical, day 13, 8 sections
# [4] = arbutin 3 mg/ml, conessine and licorice 0.36 mg/ml, extract 1:50
smiles,measurement,setting,value
"CC1C2CCC3C4CC=C5CC(N(C)C)CCC5(C)C4CCC32CN1C (stereo not shown) [Compound 1, Conessine]","decrease of melanin content (Fontana-Masson staining, image analysis)","[1]; 1.0 mM topical, days 10 and 13, compared with control-treated",50-60%
same,colour by light microscopy,[1]; 0.036% topical,considerable decrease in the color of MEL-B
same,decrease of melanin content (quantitative melanin assay),"[1]; 0.036% topical, 10 or 13 days",about 30%
same,"melanin content compared to the vehicle-treated tissues (Fontana-Masson sections, quantitative analysis)","[1]; 0.036% topical, day 10, 8 sections",73.61%
same,"melanin content compared to the vehicle-treated tissues (Fontana-Masson sections, quantitative analysis)",[1]; [3],62.43%
same,effectiveness as depigmenting agent (comparison),[1]; [4],more effective than either Licorice extract or arbutin
same,melanin content by Fontana-Masson staining,"[1]; conessine 0.36 mg/ml, extract diluted 1:50, 25 μl topical, days 10 and 13",decreases significantly
same,tyrosinase activity of lysates of pre-treated cells,tyrosinase; cells pre-incubated with conessine for 72 hrs before harvesting,No obvious difference in tyrosinase activity
same,direct inhibition of tyrosinase enzymatic activity,tyrosinase; listed as Conessine,did not directly inhibit tyrosinase activity
same,direct inhibition of tyrosinase enzymatic activity,tyrosinase; listed as conessine,does not directly inhibit tyrosinase enzymatic activity
same,decreased melanin content (quantitative melanin assay),"[2]; 0.036% topical, both 13 and 16 days, compared to vehicle-treated",30-40%
same,"melanin content compared to the vehicle-treated tissues (Fontana-Masson sections, quantitative analysis)",[2]; [3],49.90%
same,"melanin content compared to the vehicle-treated tissues (Fontana-Masson sections, quantitative analysis)","[2]; 0.036% topical, day 16, 8 sections",42.31%
same,effectiveness as depigmenting agent (comparison),[2]; [4],more effective than either Licorice extract or arbutin
same,pigmentation by light microscopy,"[2]; conessine 0.036% (0.36 mg/ml), extract diluted 1:50, 25 μl topical, days 13 and 16",strikingly decreased; also recorded: becomes lighter
same,melanin content by Fontana-Masson staining,"[2]; conessine and licorice 0.36 mg/ml, extract diluted 1:50, 25 μl topical, days 13 and 16",significant decrease in the relative melanin content
